Where two headings read alike, the source gives them in different places.
Tests used:
DYRK1A = settings: cited from earlier work
[1] = rat liver microsomes
DYRK1B [2] = biological target: T1, DYRK1B (Homo sapiens, UniProt Q9Y463); assay: DYRK1B radiometric kinase assay with Woodtide substrate peptide; format: biochemical; settings: read-out: % inhibition at 1 μM, DYRK1B
DYRK1B [3] = biological target: T1, DYRK1B; assay: Z'-LYTE kinase activity assay
CLK1 [4] = biological target: T2, CLK1 (Homo sapiens, UniProt P49759); assay: Radiometric kinase assay; format: biochemical
T2 sequence (P49759 whole entry): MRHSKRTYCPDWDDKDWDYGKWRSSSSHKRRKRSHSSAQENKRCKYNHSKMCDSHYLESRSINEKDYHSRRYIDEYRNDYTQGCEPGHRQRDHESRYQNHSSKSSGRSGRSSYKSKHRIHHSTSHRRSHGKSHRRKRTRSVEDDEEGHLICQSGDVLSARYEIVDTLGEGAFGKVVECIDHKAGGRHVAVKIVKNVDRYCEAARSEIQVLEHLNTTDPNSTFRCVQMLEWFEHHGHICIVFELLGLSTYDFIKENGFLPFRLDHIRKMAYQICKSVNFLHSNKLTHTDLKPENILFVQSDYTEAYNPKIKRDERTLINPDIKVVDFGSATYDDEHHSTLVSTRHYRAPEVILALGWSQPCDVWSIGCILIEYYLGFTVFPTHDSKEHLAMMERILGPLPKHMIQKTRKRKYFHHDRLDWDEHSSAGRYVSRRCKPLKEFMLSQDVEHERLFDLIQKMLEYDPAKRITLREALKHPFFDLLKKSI

CLK1 [5] = biological target: T2, CLK1; assay: Z'-LYTE kinase activity assay
DYRK2 = biological target: T3, DYRK2 (Homo sapiens, UniProt Q92630); assay: LanthaScreen kinase binding assay
T3 sequence (Q92630 1-601): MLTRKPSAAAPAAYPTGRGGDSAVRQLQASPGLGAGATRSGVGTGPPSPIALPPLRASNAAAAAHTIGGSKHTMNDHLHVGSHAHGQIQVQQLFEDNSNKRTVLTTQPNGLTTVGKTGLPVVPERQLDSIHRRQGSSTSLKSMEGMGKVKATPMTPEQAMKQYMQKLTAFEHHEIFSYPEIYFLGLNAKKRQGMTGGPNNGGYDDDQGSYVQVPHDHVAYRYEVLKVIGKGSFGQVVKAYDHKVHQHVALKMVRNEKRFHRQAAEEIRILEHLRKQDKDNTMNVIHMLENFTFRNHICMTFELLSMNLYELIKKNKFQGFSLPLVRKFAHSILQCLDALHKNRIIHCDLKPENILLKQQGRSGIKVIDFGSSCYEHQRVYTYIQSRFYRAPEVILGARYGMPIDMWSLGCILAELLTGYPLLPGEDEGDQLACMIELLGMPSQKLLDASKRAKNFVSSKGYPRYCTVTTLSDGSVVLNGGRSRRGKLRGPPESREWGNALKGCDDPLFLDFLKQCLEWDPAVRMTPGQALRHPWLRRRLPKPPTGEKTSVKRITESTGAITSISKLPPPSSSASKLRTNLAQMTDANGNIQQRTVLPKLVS

T1 sequence (Q9Y463 whole entry): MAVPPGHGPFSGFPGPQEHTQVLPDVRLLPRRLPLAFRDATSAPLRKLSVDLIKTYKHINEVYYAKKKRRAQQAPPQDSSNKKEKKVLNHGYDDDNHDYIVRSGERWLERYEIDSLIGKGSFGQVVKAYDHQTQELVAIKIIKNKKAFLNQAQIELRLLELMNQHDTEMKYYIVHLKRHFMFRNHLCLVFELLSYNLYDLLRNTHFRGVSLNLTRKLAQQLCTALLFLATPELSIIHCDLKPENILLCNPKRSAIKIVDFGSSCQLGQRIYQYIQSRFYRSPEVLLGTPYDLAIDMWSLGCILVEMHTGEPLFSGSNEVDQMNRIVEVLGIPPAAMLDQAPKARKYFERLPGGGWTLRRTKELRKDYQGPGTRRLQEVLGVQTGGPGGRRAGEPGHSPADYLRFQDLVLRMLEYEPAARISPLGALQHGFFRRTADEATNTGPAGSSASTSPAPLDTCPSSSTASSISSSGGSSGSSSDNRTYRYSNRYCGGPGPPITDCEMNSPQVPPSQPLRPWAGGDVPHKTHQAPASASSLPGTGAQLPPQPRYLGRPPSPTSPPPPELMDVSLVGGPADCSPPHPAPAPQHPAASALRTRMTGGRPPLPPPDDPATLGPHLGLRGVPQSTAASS

Row | SMILES | microsomal stability in words [1] | inhibition at 1 µM (DYRK1B [2]) [%] | other results
1 | CC(=O)c1cc2cc(O)ccc2s1 [1-(5-hydroxy-1-benzothiophen-2-yl)ethan-1-one] |  |  | IC50 (DYRK1A; read-out: IC50 DYRK1A): 200 nM
2 | COc1cccc2c1-c1c(sc3ccccc13)C2=O [4a, 10-Methoxy-6H-benzo[b]indeno[1,2-d]thiophen-6-one] | rapidly metabolized |  | 
3 | COc1cccc2c1C(=O)c1sc3ccccc3c1-2 [4d, 7-Methoxy-6H-benzo[b]indeno[1,2-d]thiophen-6-one] | rapidly metabolized | 7 | 
4 | COc1ccc2sc3c(c2c1)-c1ccccc1C3=O [4e, 2-Methoxy-6H-benzo[b]indeno[1,2-d]thiophen-6-one] |  | 68 | 
5 | COc1ccc2sc3c(c2c1)-c1c(OC)cccc1C3=O [4f, 2,10-Dimethoxy-6H-benzo[b]indeno[1,2-d]thiophen-6-one] | rapidly metabolized | < 5 | 
6 | O=C1c2ccccc2-c2c1sc1ccc(O)cc21 [4i, 2-Hydroxy-6H-benzo[b]indeno[1,2-d]thiophen-6-one] |  | 89 | 
7 | COc1ccc2c(c1)-c1c(sc3ccc(O)cc13)C2=O [4j, 2-Hydroxy-9-methoxy-6H-benzo[b]indeno[1,2-d]thiophen-6-one] |  | 93 | 
8 | COc1ccc2c(c1)C(=O)c1sc3ccc(O)cc3c1-2 [4k, 2-Hydroxy-8-methoxy-6H-benzo[b]indeno[1,2-d]thiophen-6-one] |  | 78 | IC50 (DYRK1B [3]): 206 nM; IC50 (CLK1 [4]): 20 nM; IC50 (CLK1 [5]): 1080 nM; IC50 (DYRK2): 186 nM
9 | O=C(c1ccccc1)c1cc2cc(O)ccc2s1 [5c] |  |  | IC50 (DYRK1A; read-out: IC50 for DYRK1A, benzothiophenyl-acetophenones 5, Fig. 2): 2000 nM

Reference: paper PMC11487425 (RSC Medicinal Chemistry, 2024)
